# Experimental data reported in ChEMBL document CHEMBL1201862, “PubChem BioAssay data set” (2004).
# Activity calls are given as the source filed them.
# Tests used:
# [1] = luciferase reporter signal suppression in cells – H4 neuroglioma cells, luminescence, dose response (AID 1990); format: functional, cell-based
# [2] = tested on: BJ; experiment: BJ-TERT fibroblast viability loss – cell-based, RAS-independent, luminescence, dose response (AID 1933); format: functional; conditions: Homo sapiens
# [3] = Luminescence Cell-Based Dose Response HTS to Identify Inhibitors of 5'UTR Stem-Loop Driven Prion Protein mRNA Translation in H4 Neuroglioblastoma Cells. [Related pubchem assays: 1827 (Project Summary), 1813 (Primary HTS)]; format: functional
# [4] = alpha-synuclein stem-loop luciferase translation blockers – H4 neuroglioma cells, luminescence, confirmation (AID 1988); format: functional, cell-based
# [5] = tested on: BJ; experiment: cells; format: functional, cell-based; conditions: Homo sapiens
# [6] = tested on: BJ; experiment: BJ-TERT-LT-ST fibroblast viability loss – cell-based, RAS-independent, luminescence, dose response (AID 1935); format: functional; conditions: Homo sapiens;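 further: BJ fibroblasts immortalized with TERT plus LT and ST oncogenes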
# [7] = DRD fibroblast viability loss – cell-based, non-viral oncogenic, luminescence, dose response (AID 1934); format: functional; conditions: Homo sapiens
# [8] = biological target: T1, Heat shock factor protein 1 (Mus musculus, UniProt P38532); experiment: enhancement of HSF1-driven luciferase signal – cell-based, NIH3T3, luminescence, dose retest, confirmation (AID 435004); format: functional;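 further: stress induced by proteasome inhibitor MG132 added 30 min after compound; luciferase reporter driven by HSF1 response element in NIH3T3 cells; actives raise luminescence as potentiators of the MG132 stress response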
# T1 sequence (P38532 whole entry): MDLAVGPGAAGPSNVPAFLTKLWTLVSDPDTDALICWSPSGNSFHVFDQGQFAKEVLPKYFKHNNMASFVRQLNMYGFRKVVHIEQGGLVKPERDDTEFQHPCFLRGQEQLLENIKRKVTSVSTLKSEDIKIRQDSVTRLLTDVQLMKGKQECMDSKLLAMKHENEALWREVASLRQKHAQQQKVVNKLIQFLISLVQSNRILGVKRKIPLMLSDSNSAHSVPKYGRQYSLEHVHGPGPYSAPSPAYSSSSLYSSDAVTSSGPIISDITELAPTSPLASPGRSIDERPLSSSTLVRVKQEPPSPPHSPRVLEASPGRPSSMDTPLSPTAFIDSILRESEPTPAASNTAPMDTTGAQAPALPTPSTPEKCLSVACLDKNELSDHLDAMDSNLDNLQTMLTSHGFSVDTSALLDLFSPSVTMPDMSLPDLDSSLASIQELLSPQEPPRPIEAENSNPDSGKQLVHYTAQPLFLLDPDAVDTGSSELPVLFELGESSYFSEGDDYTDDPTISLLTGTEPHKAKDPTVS
# [9] = tested on: Vero; experiment: cells; format: functional, cell-based; conditions: Chlorocebus sabaeus
# [10] = tested on: BJ; experiment: growth inhibition of engineered Ras-driven BJ cells – cell-based, alamar blue fluorescence, cherrypicked samples, dose response (AID 2631); format: functional; conditions: Homo sapiens;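 further: confirmatory dose-response assay in RAS-dependent BJ fibroblasts engineered with TERT, LT and ST, with cytotoxicity read by fluorescence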
# [11] = tested on: INS1; experiment: INS-1E survival protection against cytokine death – cell-based, luminescence, retest, dose response (AID 449756); format: functional; conditions: Rattus norvegicus, INS1;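 further: cell death triggered by IL-1 beta plus TNF-alpha plus IFN-gamma mixture; protective hits raise ATP signal compared with cytokine alone wells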
# [12] = tested on: Vero; experiment: cells; format: functional; conditions: Chlorocebus sabaeus
# [13] = biological target: Protein disulfide-isomerase (Homo sapiens, UniProt P07237); experiment: inhibition of PDI-driven insulin aggregation – biochemical, turbidity, absorbance, cherry-picked samples, dose response (AID 602350); format: functional
# [14] = Fluorescence-based cell-based high throughput dose response assay for inhibitors of the interaction of nucleotide-binding oligomerization domain containing 2 (NOD2) and the receptor-interacting serine-threonine kinase 2 (RIPK2).; format: functional; conditions: Homo sapiens
# [15] = viability loss in HEK293T cells – cell-based, cherry-picks, cytotoxicity control for HIV Vif inhibitor project, dose response (AID 652208); format: functional
# [16] = biological target: Paired box protein Pax-8 (Homo sapiens, UniProt Q06710); experiment: PAX8 transcriptional activity inhibition in RMG-I – RMG-I cells, luciferase, cherry-pick, dose response (AID 687027); format: functional, cell-based;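 further: luciferase reporter driven by Pax8 target thyroperoxidase promoter measured by SteadyGlo luminescence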
# [17] = inhibitors acting on PAX2 in cells – cell-based, plate reader, dry powder samples, selectivity assay for PAX8 inhibitor project, dose response (AID 743048); format: functional;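 further: HEK293 cells carrying a WT1 promoter luciferase reporter driven by expressed Pax2; potency is for inhibition of Pax2 driven reporter signal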
# [18] = COV362 cell viability loss – plate reader, dry powder, SA12, cytotoxicity control for PAX8 inhibitor project, dose response (AID 743144); format: functional, cell-based
# [19] = toxicity toward immortalized ovarian surface epithelium – cell-based, plate reader, dry powder samples, cytotoxicity control for PAX8 inhibitor project, dose response (AID 743045); format: functional
# [20] = A2780 cell killing – plate reader, dry powder samples, cytotoxicity control, dose response (AID 743046); format: functional, cell-based
# [21] = OVCAR-3 cell viability loss – plate reader, dry powder samples, PAX8 inhibitor project, dose response (AID 743044); format: functional, cell-based
# [22] = PAX5 cellular inhibition readout – cell-based, plate reader, dry powder samples, selectivity assay for PAX8 inhibitor project, dose response (AID 743047); format: functional;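 further: HEK293 cells carrying a Pax5 driven CD19 promoter luciferase reporter; potency of inhibitors that lower reporter luminescence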
# [23] = IGROV1 cell killing – plate reader, dry powder samples, PAX8 inhibitor project, dose response (AID 743043); format: functional, cell-based; conditions: IGROV-1
# [24] = OVCAR4 cell viability loss – plate reader, dry powder, SA11, cytotoxicity control for PAX8 inhibitor project, dose response (AID 743150); format: functional, cell-based; conditions: OVCAR-4
# [25] = COV434 cell viability loss – plate reader, dry powder, SA7, cytotoxicity control for PAX8 inhibitor project, dose response (AID 743145); format: functional, cell-based
# [26] = OV-90 cell viability loss – plate reader, dry powder, SA8, PAX8 inhibitor project, dose response (AID 743149); format: functional, cell-based
# [27] = PAX8-dependent cell viability loss – plate reader, dry powder, dose response (AID 743049); format: functional, cell-based
# [28] = biological target: Benomyl/methotrexate resistance protein (Candida albicans, UniProt P28873); experiment: Candida albicans Mdr1 pump inhibition curves – singleplex, Cherry Pick1 hits, dose response (AID 588608); format: functional
# [29] = biological target: Multidrug resistance protein CDR1 (Candida albicans, UniProt P43071); experiment: inhibition of Nile Red efflux via Candida CDR1 – S. cerevisiae AD1-8u, singleplex, Cherry Pick1 hits, dose response (AID 588606); format: functional
# [30] = biological target: Multidrug resistance protein CDR2 (Candida albicans (strain SC5314 / ATCC MYA-2876) (Yeast), UniProt P78595); experiment: inhibition of Nile Red efflux via Candida CDR2 – S. cerevisiae AD1-8u, singleplex, Cherry Pick1 hits, dose response (AID 588604); format: functional
# [31] = biological target: Beta-galactosidase (Escherichia coli, UniProt Q8VNN2); experiment: Dose response counterscreen for EBI2 assay utilizing the enzyme, b-galactosidase.; format: functional
# [32] = biological target: Serine/threonine-protein kinase TBK1 (Homo sapiens, UniProt Q9UHD2); experiment: Navigating the Kinome. Panel member name: TBK1; format: functional
# [33] = biological target: 5'-AMP-activated protein kinase catalytic subunit alpha-1 (Homo sapiens, UniProt Q13131); format: functional
# [34] = biological target: Tyrosine-protein kinase receptor TYRO3 (Homo sapiens, UniProt Q06418); format: functional;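 further: TYRO3 value obtained as one member of a kinome-wide profiling panel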
# [35] = biological target: Death-associated protein kinase 3 (Homo sapiens, UniProt O43293); format: functional;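 further: measured as one member of a kinome-wide profiling panel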
# [36] = biological target: Activin receptor type-1 (Homo sapiens, UniProt Q04771); experiment: Navigating the Kinome. Panel member name: ACVR1; format: functional
# [37] = biological target: Aurora kinase A (Homo sapiens, UniProt O14965); format: functional;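 further: value from the Navigating the Kinome kinase panel profiling, panel entry STK6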
# [38] = biological target: LIM domain kinase 1 (Homo sapiens, UniProt P53667); experiment: Navigating the Kinome. Panel member name: LIMK1; format: functional
# Chain of LIM domain kinase 1 (P53667 whole entry, the tested form may be a part): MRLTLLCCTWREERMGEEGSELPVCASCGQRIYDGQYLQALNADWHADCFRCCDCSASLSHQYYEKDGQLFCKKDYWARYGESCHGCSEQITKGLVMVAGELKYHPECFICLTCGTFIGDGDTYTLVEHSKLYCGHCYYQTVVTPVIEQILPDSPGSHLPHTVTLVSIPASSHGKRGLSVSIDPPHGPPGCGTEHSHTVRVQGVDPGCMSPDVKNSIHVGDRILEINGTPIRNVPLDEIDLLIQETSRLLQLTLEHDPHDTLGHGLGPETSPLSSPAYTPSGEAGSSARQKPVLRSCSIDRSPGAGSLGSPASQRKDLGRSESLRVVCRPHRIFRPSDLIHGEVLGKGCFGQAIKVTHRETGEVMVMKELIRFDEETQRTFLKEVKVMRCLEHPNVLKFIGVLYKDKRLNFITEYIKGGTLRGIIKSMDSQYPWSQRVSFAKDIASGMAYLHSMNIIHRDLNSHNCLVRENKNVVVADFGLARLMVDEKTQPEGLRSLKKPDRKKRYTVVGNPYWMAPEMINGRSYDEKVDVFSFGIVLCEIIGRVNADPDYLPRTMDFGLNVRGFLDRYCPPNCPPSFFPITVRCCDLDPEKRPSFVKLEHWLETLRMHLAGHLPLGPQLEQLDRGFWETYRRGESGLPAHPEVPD
# [39] = biological target: Cyclin-dependent kinase 5 (Homo sapiens, UniProt Q00535); format: functional;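 further: CDK5 measured as one member of a kinase profiling panel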
# [40] = biological target: Dual specificity tyrosine-phosphorylation-regulated kinase 1B (Homo sapiens, UniProt Q9Y463); experiment: Navigating the Kinome. Panel member name: DYRK1B; format: functional
# [41] = biological target: cAMP-dependent protein kinase catalytic subunit PRKX (Homo sapiens, UniProt P51817); format: functional
# Chain of cAMP-dependent protein kinase catalytic subunit PRKX (P51817 whole entry): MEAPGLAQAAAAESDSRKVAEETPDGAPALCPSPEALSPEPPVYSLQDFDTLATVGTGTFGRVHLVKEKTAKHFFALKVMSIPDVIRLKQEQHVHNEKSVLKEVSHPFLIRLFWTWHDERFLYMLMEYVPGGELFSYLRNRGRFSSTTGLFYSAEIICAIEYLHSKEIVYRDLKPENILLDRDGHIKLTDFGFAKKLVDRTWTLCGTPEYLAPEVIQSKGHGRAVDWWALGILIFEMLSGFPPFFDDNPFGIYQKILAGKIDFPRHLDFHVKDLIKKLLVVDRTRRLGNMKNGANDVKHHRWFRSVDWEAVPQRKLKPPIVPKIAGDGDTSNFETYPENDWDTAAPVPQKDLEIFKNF
# [42] = biological target: Platelet-derived growth factor receptor alpha (Homo sapiens, UniProt P16234); experiment: Navigating the Kinome. Panel member name: PDGFRA; format: functional
# [43] = biological target: Leucine-rich repeat serine/threonine-protein kinase 2 (Homo sapiens, UniProt Q5S007); format: functional;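 further: value from a broad kinome-wide panel profiling study in which LRRK2 was one of the kinases tested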
# Chain of Leucine-rich repeat serine/threonine-protein kinase 2 (Q5S007 whole entry): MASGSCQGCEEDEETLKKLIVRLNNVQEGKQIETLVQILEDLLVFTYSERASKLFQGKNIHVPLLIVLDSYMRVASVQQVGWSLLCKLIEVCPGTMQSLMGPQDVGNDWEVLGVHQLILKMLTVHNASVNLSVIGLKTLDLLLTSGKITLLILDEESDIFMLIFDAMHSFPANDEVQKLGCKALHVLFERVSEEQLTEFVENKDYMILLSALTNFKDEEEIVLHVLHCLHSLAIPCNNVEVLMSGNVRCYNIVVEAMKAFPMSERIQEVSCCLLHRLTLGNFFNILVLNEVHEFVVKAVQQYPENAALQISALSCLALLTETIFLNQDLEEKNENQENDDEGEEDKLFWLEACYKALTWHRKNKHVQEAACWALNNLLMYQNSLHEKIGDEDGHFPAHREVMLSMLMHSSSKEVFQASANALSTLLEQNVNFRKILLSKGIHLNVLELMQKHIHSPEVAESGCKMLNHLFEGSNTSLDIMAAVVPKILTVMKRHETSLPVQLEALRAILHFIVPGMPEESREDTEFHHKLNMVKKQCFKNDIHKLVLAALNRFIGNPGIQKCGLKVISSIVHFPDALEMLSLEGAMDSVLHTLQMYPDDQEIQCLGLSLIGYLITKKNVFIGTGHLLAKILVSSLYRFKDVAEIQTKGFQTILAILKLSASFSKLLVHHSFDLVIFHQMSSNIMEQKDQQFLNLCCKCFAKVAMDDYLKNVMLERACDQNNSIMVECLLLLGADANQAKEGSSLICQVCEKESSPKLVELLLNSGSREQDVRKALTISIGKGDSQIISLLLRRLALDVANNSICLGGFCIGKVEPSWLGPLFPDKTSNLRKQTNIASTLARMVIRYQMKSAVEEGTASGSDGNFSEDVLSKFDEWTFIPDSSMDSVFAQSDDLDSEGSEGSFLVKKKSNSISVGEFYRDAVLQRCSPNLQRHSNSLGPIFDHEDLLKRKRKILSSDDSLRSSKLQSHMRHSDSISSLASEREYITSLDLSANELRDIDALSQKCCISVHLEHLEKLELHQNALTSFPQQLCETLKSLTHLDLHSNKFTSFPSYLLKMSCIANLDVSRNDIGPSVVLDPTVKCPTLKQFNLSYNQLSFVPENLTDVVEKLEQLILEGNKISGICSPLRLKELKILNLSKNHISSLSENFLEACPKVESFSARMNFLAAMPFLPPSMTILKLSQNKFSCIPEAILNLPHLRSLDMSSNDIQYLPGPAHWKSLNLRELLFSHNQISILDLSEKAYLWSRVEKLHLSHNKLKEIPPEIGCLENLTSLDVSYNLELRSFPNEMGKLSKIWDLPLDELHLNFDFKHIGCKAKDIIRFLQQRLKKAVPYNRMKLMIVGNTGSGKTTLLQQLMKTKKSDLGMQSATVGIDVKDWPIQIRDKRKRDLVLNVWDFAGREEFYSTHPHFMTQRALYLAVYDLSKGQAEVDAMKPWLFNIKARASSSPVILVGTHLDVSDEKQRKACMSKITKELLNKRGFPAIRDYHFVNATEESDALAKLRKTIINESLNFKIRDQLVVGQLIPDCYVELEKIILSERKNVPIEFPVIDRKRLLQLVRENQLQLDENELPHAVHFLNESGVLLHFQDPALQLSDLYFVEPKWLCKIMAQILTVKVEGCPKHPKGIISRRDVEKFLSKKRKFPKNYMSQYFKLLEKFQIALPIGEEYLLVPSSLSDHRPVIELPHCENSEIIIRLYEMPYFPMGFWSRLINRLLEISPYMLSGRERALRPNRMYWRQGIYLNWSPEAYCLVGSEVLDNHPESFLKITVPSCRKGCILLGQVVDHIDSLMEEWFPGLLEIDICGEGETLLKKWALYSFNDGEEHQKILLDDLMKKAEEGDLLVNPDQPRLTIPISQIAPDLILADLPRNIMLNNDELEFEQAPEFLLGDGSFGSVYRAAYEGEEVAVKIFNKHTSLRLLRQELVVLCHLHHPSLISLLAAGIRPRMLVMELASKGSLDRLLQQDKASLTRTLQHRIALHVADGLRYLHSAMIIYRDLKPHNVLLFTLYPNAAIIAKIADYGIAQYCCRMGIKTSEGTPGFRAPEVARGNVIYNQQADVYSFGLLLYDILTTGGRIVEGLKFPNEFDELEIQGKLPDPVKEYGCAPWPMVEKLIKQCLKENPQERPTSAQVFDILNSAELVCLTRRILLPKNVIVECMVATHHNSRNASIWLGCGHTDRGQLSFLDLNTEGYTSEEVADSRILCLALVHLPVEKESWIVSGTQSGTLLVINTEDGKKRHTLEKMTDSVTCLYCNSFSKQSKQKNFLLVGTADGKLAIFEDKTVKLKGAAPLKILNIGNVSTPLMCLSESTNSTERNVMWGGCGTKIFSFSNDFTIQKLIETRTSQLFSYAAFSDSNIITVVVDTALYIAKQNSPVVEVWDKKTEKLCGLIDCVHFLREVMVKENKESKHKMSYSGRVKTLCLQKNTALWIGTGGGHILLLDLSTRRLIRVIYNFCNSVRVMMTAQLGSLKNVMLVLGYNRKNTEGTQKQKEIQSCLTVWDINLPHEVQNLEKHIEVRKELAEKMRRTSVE
# [44] = biological target: Serine/threonine-protein kinase Nek2 (Homo sapiens, UniProt P51955); format: functional
# [45] = biological target: Cyclin-dependent kinase 8 (Homo sapiens, UniProt P49336); experiment: Navigating the Kinome. Panel member name: CDK8; format: functional
# Chain of Cyclin-dependent kinase 8 (P49336 whole entry): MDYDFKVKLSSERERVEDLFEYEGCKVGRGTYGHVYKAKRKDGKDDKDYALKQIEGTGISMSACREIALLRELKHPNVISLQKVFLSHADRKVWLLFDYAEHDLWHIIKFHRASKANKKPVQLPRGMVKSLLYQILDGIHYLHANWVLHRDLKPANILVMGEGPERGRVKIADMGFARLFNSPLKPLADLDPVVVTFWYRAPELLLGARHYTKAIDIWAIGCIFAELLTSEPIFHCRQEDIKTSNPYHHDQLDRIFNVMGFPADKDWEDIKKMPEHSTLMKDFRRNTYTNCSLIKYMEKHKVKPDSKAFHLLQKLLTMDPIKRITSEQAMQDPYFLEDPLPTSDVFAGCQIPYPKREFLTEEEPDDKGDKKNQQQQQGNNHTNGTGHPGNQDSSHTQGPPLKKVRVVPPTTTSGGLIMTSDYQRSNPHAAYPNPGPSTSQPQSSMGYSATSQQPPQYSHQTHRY
# [46] = biological target: Cyclin-dependent kinase 9 (Homo sapiens, UniProt P50750); format: functional;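 further: value from the CDK9 entry of a kinome-spanning kinase panel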
# [47] = biological target: Dual specificity protein kinase CLK4 (Homo sapiens, UniProt Q9HAZ1); format: functional
# [48] = biological target: Dual specificity tyrosine-phosphorylation-regulated kinase 1A (Homo sapiens, UniProt Q13627); format: functional;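 further: measured against DYRK1A as one member of a broad kinome profiling panel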
# [49] = biological target: Inhibitor of nuclear factor kappa-B kinase subunit epsilon (Homo sapiens, UniProt Q14164); experiment: Navigating the Kinome. Panel member name: IKBKE; format: functional
# Chain of Inhibitor of nuclear factor kappa-B kinase subunit epsilon (Q14164 whole entry): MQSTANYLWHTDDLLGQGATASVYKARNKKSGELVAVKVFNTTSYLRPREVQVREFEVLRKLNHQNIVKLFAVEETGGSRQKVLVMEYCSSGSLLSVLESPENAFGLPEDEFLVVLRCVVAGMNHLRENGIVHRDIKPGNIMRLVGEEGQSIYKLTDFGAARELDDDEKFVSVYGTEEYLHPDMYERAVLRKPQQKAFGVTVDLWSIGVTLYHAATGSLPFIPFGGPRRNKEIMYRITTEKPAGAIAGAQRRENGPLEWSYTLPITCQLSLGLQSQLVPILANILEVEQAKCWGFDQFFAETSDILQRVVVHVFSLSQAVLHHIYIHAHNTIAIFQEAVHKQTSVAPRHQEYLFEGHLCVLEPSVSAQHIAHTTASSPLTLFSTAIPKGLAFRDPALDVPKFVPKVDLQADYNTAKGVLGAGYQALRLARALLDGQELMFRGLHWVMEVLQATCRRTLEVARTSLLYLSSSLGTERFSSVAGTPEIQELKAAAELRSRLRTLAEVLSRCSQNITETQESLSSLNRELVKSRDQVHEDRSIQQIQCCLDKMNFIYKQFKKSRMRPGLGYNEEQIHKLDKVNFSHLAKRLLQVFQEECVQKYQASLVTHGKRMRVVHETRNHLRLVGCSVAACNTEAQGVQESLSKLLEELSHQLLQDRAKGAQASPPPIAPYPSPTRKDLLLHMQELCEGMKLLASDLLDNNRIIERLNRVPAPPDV
# [50] = biological target: Leukocyte tyrosine kinase receptor (Homo sapiens, UniProt P29376); experiment: Navigating the Kinome. Panel member name: LTK; format: functional
# [51] = biological target: RAC-gamma serine/threonine-protein kinase (Homo sapiens, UniProt Q9Y243); format: functional
# [52] = biological target: Serine/threonine-protein kinase pim-1 (Homo sapiens, UniProt P11309); format: functional
# [53] = biological target: Serine/threonine-protein kinase PAK 1 (Homo sapiens, UniProt Q13153); format: functional
# [54] = biological target: Serine/threonine-protein kinase pim-3 (Homo sapiens, UniProt Q86V86); format: functional;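 further: value obtained as one member of a broad kinase panel profiling effort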
# [55] = biological target: Receptor-type tyrosine-protein kinase FLT3 (Homo sapiens, UniProt P36888); format: functional;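 further: FLT3 was tested as one member of a kinome-wide kinase panel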
# [56] = biological target: MAP kinase-interacting serine/threonine-protein kinase 2 (Homo sapiens, UniProt Q9HBH9); format: functional
# [57] = biological target: Aurora kinase B (Homo sapiens, UniProt Q96GD4); format: functional
# Chain of Aurora kinase B (Q96GD4 whole entry): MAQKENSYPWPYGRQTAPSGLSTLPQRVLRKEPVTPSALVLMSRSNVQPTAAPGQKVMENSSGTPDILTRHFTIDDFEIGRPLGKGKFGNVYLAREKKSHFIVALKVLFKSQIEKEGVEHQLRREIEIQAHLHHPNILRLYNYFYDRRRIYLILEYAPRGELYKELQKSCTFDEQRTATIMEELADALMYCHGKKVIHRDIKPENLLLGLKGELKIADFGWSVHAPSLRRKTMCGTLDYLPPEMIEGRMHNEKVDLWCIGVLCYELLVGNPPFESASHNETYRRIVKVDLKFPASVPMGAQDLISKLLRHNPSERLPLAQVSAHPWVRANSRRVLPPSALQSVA
# [58] = biological target: Interleukin-1 receptor-associated kinase 4 (Homo sapiens, UniProt Q9NWZ3); format: functional
# [59] = biological target: Serine/threonine-protein kinase DCLK1 (Homo sapiens, UniProt O15075); format: functional;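 further: affinity for DCLK1 (listed as DCAMKL1) measured as one member of a kinome-wide kinase profiling panel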
# [60] = biological target: Serine/threonine-protein kinase MRCK alpha (Homo sapiens, UniProt Q5VT25); format: functional
# [61] = biological target: Serine/threonine-protein kinase BRSK1 (Homo sapiens, UniProt Q8TDC3); format: functional;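 further: measured within a kinome-wide kinase panel, with the target listed as KIAA1811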
structure (smiles),measurement,setting,value
COc1ccc(/C=C2\CN(Cc3ccccc3)C/C(=C\c3ccc(OC)c(O)c3)C2=O)cc1O,EC50,[1],8.62 µM (inconclusive)
same,EC50,[2],2.04 µM (active)
same,EC50,[3],> 120 µM (not active)
same,EC50,[4],9.23 µM (inconclusive)
same,EC50,[5],4.4 µM (active)
same,EC50,[6],2.23 µM (active)
same,EC50,[7],2.65 µM (active)
same,EC50,[8],8.35 µM (active)
same,IC50,[9],23.2 µM (active)
same,EC50,[10],0.435 µM (active)
same,AC50,[11],4.23 µM (active)
same,CC50,[12],2.75 µM (active)
same,AC50,[13],2.98 µM (active)
same,IC50,[14],5.53 µM (active)
same,AC50,[15],5.24 µM (active)
same,AC50,[16],4.63 µM (active)
same,AC50,[17],14.2 µM (active)
same,AC50,[18],4.34 µM (active)
same,AC50,[19],8.94 µM (active)
same,AC50,[20],12.5 µM (active)
same,AC50,[21],7.31 µM (active)
same,AC50,[22],14.3 µM (active)
same,AC50,[23],21.6 µM (active)
same,AC50,[24],4.93 µM (active)
same,AC50,[25],4.16 µM (active)
same,AC50,[26],3.79 µM (active)
same,AC50,[27],9.32 µM (active)
O=C1C(Cc2ccccc2)Nc2ncnc(N3CCN(c4ccccc4)CC3)c2N1Cc1ccc(Br)cc1 (configuration not stated),EC50,[28],21.2 µM (active)
same,EC50,[29],11.1 µM (active)
same,EC50,[30],10.8 µM (active)
same,IC50,[31],2.54 µM (active)
Cc1cc(=O)[nH]c2[nH]n(-c3ccccc3)c(=O)c12,Ki,[32],50.1 µM (active)
same,Ki,[33],79.4 µM (active)
same,Ki,[34],50.1 µM (active)
same,Ki,[35],63.1 µM (active)
same,Ki,[36],79.4 µM (active)
same,Ki,[37],50.1 µM (active)
same,Ki,[38],12.6 µM (active)
same,Ki,[39],50.1 µM (active)
same,Ki,[40],12.6 µM (active)
same,Ki,[41],63.1 µM (active)
same,Ki,[42],100 µM (active)
same,Ki,[43],39.8 µM (active)
same,Ki,[44],50.1 µM (active)
same,Ki,[45],39.8 µM (active)
same,Ki,[46],39.8 µM (active)
same,Ki,[47],10 µM (active)
same,Ki,[48],20 µM (active)
same,Ki,[49],50.1 µM (active)
same,Ki,[50],20 µM (active)
NC(=O)c1cccc2[nH]c(-c3cccc(NCCN4CCCC4)n3)nc12,Ki,[51],> 10 µM (inactive)
same,Ki,[52],2 µM (active)
same,Ki,[53],> 10 µM (inactive)
same,Ki,[38],> 10 µM (inactive)
same,Ki,[54],1 µM (active)
same,Ki,[55],1.26 µM (active)
same,Ki,[56],2.51 µM (active)
same,Ki,[57],1.26 µM (active)
same,Ki,[58],> 10 µM (inactive)
same,Ki,[59],> 10 µM (inactive)
same,Ki,[60],> 10 µM (inactive)
same,Ki,[61],5.01 µM (active)
